The source of these data is patent publication US20220117958A1, “COMPOSITIONS AND METHODS FOR INHIBITING ACSS2” (THE TRUSTEES OF THE UNIVERSITY OF PENNSYLVANIA, priority 2018, published 2022).

For this assay, the system named is Male Sprague-Dawley rat. Nature of the assay: Fear conditioning in rats (cued memory test). It is filed as in vivo. As to conditions: IP, dosed 5 min before and 30 min after acquisition, versus vehicle. The method, then:
A. Fear Conditioning in Rats
Species: Rat; Strain: Male Sprague-Dawley (CD-SD strain 001; Charles River Labs); Age or weight: 7 to 9 weeks, approximately 250 grams
Formulation(s): 5% DMSO in 0.5% methylcellulose
Dose Levels: 4 mg/kg total; distributed into 2 injections of 2 mg/kg
Dose Frequency: Twice; once prior to shock cycle and once right after last shock • 1st Injection—5 minutes before being placed into fear conditioning chamber • 2nd Injection—30 minutes after coming out of fear conditioning chamber (alternatively 30 min after last shock) • Study duration: 3 days
Rats are handled for 3 consecutive days for ˜2 minutes each day prior to the experiment. […]
Day 1—Conditioning (Acquisition)—animals are placed in the chambers and presented a training session (Context A). […] Freezing behavior (immobility) is recorded in 10-second intervals during the session. Percent baseline freezing behavior is determined in the 3-minute habituation period. […]
The rats were provided 3 minutes habituation. […] Data is recorded in 10 see epochs. […]
Animals are placed in the chambers with a different (lemon) scent and black Plexiglas floor over the grid floor (Context B). Freezing behavior in response to an altered context is recorded for 2 minutes in 10-second intervals. Then the 80 dB tone is presented for 8 minutes and immobility is recorded in 10-second intervals to measure freezing response to the tone cue.

Turning to `COCCNC(=O)Nc1ccc2nc(-c3cccs3)c(-c3cccs3)nc2c1` [ADG-205c, 1-(2,3-di(thiophen-2-yl)quinoxalin-6-yl)-3-(2-methoxyethyl)urea], the “Freezing during cue presentation (cued memory test)” value by setting is: (listed as EPV018) “significant reduced freezing”; (listed as EPV-018) “statistically significant reduction”.
